# Measured values: PMC3496871 (Molecular bioSystems, 2012)
# Entries after “also recorded” stand apart in the source; their conditions may differ.
# Assays:
# [1] = target: T1, Eis_Mtb (Mycobacterium tuberculosis, UniProt P9WFK7); details: transfer onto a few AGs; cited from earlier work
# [2] = target: T2, Eis_Ava (Trichormus variabilis (Anabaena variabilis), UniProt Q3M362); assay: Acyl-CoA cosubstrate profile of Eis_Ava; type: biochemical; details: 6 acyl-CoA cosubstrates tested
# [3] = test system: NC[C@H]1O[C@H](O[C@H]2[C@H](O)[C@@H](O)[C@H](N)C[C@@H]2N)[C@H](N)[C@@H](O)[C@@H]1O; assay: purified protein, by the assay type; type: biochemical, Mycobacterium tuberculosis; details: other: Eis_Mtb […], 500 μM AcCoA, apparent, pH 7.5
# [4] = target: T2, Eis_Ava; assay: Number of acetylations of AGs by Eis_Ava; type: biochemical; details: mass spectrometry; AG 0.67 mM, AcCoA 6.7 mM, Eis_Ava 10 μM, overnight at rt
# [5] = target: T1, Eis_Mtb; type: biochemical; details: AG 0.1 mM, AcCoA 0.5 mM, Eis 0.5 μM
# [6] = target: T2, Eis_Ava; assay: UV-Vis assay of Eis_Ava activity against KAN and 6′-glycinyl-KAN; details: AG 0.1 mM, AcCoA 0.5 mM, Eis 0.5 μM
# [7] = target: T3, Eis_Msm (Mycolicibacterium smegmatis, UniProt A0QY29); assay: UV-Vis assay of Eis_Msm activity against KAN and 6′-glycinyl-KAN; details: AG 0.1 mM, AcCoA 0.5 mM, Eis 0.5 μM
# [8] = test system: Eis_Msm; details: cited from earlier work
# [9] = target: T1, Eis_Mtb; type: biochemical; details: 500 μM AcCoA, apparent
# [10] = target: T1, Eis_Mtb; details: cited from earlier work
# [11] = target: T2, Eis_Ava; assay: biochemical; type: biochemical
# [12] = test system: Eis_Ava; assay: biochemical; type: biochemical
# [13] = target: T3, Eis_Msm; type: biochemical; details: read-out: IC50 Eis_Msm; NEO acetylation
# [14] = test system: NC[C@@H]1O[C@H](O[C@H]2[C@@H](O)[C@H](O[C@@H]3[C@@H](O)[C@H](N)C[C@H](N)[C@H]3O[C@H]3O[C@H](CN)[C@@H](O)[C@H](O)[C@H]3N)O[C@@H]2CO)[C@H](N)[C@@H](O)[C@@H]1O; assay: purified protein, by the assay type; type: biochemical, Mycobacterium smegmatis; details: other: Eis_Msm […], 500 μM AcCoA, apparent, pH 7.5
# [15] = test system: CN[C@@H]1[C@@H](O[C@H]2O[C@H](CO)[C@@H](N)[C@H](O)[C@H]2O)OC2C[C@@H](N)[C@@H](O[C@H]3[C@H](O)[C@@H](O)[C@H](N)C[C@@H]3N)OC2[C@@H]1O; assay: purified protein, by the assay type; type: biochemical, Mycobacterium smegmatis; details: other: Eis_Msm […], 500 μM AcCoA, apparent, pH 7.5
# [16] = test system: NC[C@@H]1O[C@H](O[C@H]2[C@@H](O)[C@H](O[C@@H]3[C@@H](O)[C@H](N)C[C@H](N)[C@H]3O[C@H]3O[C@H](CO)[C@@H](O)[C@H](O)[C@H]3N)O[C@@H]2CO)[C@H](N)[C@@H](O)[C@@H]1O; assay: purified protein, by the assay type; type: biochemical, Mycobacterium smegmatis; details: other: Eis_Msm […], 500 μM AcCoA, apparent, pH 7.5
# [17] = test system: NC[C@H]1O[C@H](O[C@H]2[C@H](O)[C@@H](O)[C@H](N)C[C@@H]2N)[C@H](N)[C@@H](O)[C@@H]1O; assay: purified protein, by the assay type; type: biochemical, Mycobacterium smegmatis; details: other: Eis_Msm […], 500 μM AcCoA, apparent, pH 7.5
# [18] = target: T2, Eis_Ava; assay: Regio-specificity of NEA acetylation by Eis_Ava; type: biochemical
# [19] = test system: NC[C@@H]1O[C@H](O[C@H]2[C@@H](O)[C@H](O[C@@H]3[C@@H](O)[C@H](N)C[C@H](N)[C@H]3O[C@H]3O[C@H](CN)[C@@H](O)[C@H](O)[C@H]3N)O[C@@H]2CO)[C@H](N)[C@@H](O)[C@@H]1O; assay: purified protein, by the assay type; type: biochemical, Anabaena variabilis; details: other: Eis_Ava […], 500 μM AcCoA, apparent, pH 7.5
# [20] = test system: CN[C@@H]1[C@@H](O[C@H]2O[C@H](CO)[C@@H](N)[C@H](O)[C@H]2O)OC2C[C@@H](N)[C@@H](O[C@H]3[C@H](O)[C@@H](O)[C@H](N)C[C@@H]3N)OC2[C@@H]1O; assay: purified protein, by the assay type; type: biochemical, Anabaena variabilis; details: other: Eis_Ava […], 500 μM AcCoA, apparent, pH 7.5
# [21] = test system: NC[C@@H]1O[C@H](O[C@H]2[C@@H](O)[C@H](O[C@@H]3[C@@H](O)[C@H](N)C[C@H](N)[C@H]3O[C@H]3O[C@H](CO)[C@@H](O)[C@H](O)[C@H]3N)O[C@@H]2CO)[C@H](N)[C@@H](O)[C@@H]1O; assay: purified protein, by the assay type; type: biochemical, Anabaena variabilis; details: other: Eis_Ava […], 500 μM AcCoA, apparent, pH 7.5
# [22] = test system: NC[C@H]1O[C@H](O[C@H]2[C@H](O)[C@@H](O)[C@H](N)C[C@@H]2N)[C@H](N)[C@@H](O)[C@@H]1O; assay: purified protein, by the assay type; type: biochemical, Anabaena variabilis; details: other: Eis_Ava […], 500 μM AcCoA, apparent, pH 7.5
# T1 sequence (P9WFK7 whole entry): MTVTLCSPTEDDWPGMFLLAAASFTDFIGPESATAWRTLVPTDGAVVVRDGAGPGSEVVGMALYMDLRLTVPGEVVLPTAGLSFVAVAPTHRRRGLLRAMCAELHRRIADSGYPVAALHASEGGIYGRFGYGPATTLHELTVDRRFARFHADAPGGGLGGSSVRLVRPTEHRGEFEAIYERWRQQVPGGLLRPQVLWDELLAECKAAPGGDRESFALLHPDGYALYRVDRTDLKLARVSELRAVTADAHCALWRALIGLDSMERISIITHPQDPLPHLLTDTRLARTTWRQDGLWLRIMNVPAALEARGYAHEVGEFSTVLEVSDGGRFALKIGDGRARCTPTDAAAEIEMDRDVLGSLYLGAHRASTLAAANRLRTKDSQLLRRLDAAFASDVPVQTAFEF
molecule,measurement,setting,value
CCC(=O)SCCNC(=O)CCNC(=O)[C@H](O)C(C)(C)COP(=O)(O)OP(=O)(O)OC[C@H]1O[C@@H](n2cnc3c(N)ncnc32)[C@H](O)[C@@H]1OP(=O)(O)O [n-propionyl-CoA],acceptance as cosubstrate by Eis_Mtb,[1],efficiently accepting
same,acceptance as cosubstrate by Eis_Ava,[2],accepted
Eis_Mtb (Mycobacterium tuberculosis H37Rv),Km,[3],1315 ± 492 µM
same,kcat,[3],0.699 ± 0.136 s⁻¹
same,kcat/Km,[3],532 ± 224 M⁻¹ s⁻¹
"[H]/N=C(/N)N[C@H]1[C@H](O)[C@@H](O)[C@H](O[C@@H]2O[C@@H](C)[C@](O)(C=O)[C@H]2O[C@@H]2O[C@@H](CO)[C@H](O)[C@@H](O)[C@@H]2NC)[C@@H](N/C(N)=N\[H])[C@@H]1O [STR, streptomycin]",number of acetylations by Eis_Ava,[4],not be substrates
NCC(=O)NCC1OC(OC2C(N)CC(N)C(OC3OC(CO)C(O)C(N)C3O)C2O)C(O)C(O)C1O (stereo not shown) [6′-glycinyl-KAN],acetylation by Eis_Mtb (UV-Vis),[5],not a substrate; also recorded: almost inactive
same,acetylation by Eis_Ava (UV-Vis),[6],not a substrate; also recorded: almost inactive
same,acetylation by Eis_Msm (UV-Vis),[7],not a substrate; also recorded: almost inactive
"NC[C@@H]1O[C@H](O[C@H]2[C@@H](O)[C@H](O[C@@H]3[C@@H](O)[C@H](N)C[C@H](N)[C@H]3O[C@H]3O[C@H](CO)[C@@H](O)[C@H](O)[C@H]3N)O[C@@H]2CO)[C@H](N)[C@@H](O)[C@@H]1O [PAR, paromomycin]",number of acetylations by Eis_Msm,[8],tri-acetylation
same,number of acetylations by Eis_Ava,[4],tri-acetylation
same,Km,[9],110 ± 21 µM
same,kcat,[9],0.136 ± 0.012 s⁻¹
same,number of acetylations by Eis_Mtb,[10],di-acetylation
CC(C)(COP(=O)(O)OP(=O)(O)OC[C@H]1O[C@@H](n2cnc3c(N)ncnc32)[C@H](O)[C@@H]1OP(=O)(O)O)[C@@H](O)C(=O)NCCC(=O)NCCSC(=O)CC(=O)O [malonyl-CoA],acceptance as cosubstrate by Eis_Mtb,[1],moderately so
"[H]/N=C(\N/C(=N/[H])NCCCCCCNC(=N)NC(=N)Nc1ccc(Cl)cc1)Nc1ccc(Cl)cc1 [compound 1, chlorhexidine]",IC50,[11],20 ± 7 µM
same,IC50 for Eis_Ava fold higher than against Eis_Msm,[12],11 fold
same,IC50 for Eis_Ava fold higher than for Eis_Mtb,[12],107 fold
same,IC50,[13],1.85 ± 0.39 µM
C/C=C/C(=O)SCCNC(=O)CCNC(=O)[C@H](O)C(C)(C)COP(=O)(O)OP(=O)(O)OC[C@H]1O[C@@H](n2cnc3c(N)ncnc32)[C@H](O)[C@@H]1OP(=O)(O)O [crotonyl-CoA],acceptance as cosubstrate by Eis_Mtb,[1],moderately so
kanamycin A,acetylation by Eis_Mtb (UV-Vis),[5],efficiently gets multi-acetylated
same,acetylation by Eis_Ava (UV-Vis),[6],efficiently gets multi-acetylated
same,acetylation by Eis_Msm (UV-Vis),[7],efficiently gets multi-acetylated
Eis_Msm (Mycolicibacterium smegmatis MC2 155),Km,[14],110 ± 14 µM
same,kcat,[14],0.148 ± 0.006 s⁻¹
same,kcat/Km,[14],1340 ± 180 M⁻¹ s⁻¹
same,Km,[15],150 ± 43 µM
same,kcat,[15],0.019 ± 0.002 s⁻¹
same,kcat/Km,[15],127 ± 39 M⁻¹ s⁻¹
same,Km,[16],738 ± 158 µM
same,kcat,[16],0.235 ± 0.033 s⁻¹
same,kcat/Km,[16],318 ± 82 M⁻¹ s⁻¹
same,Km,[17],1302 ± 312 µM
same,kcat,[17],0.687 ± 0.083 s⁻¹
same,kcat/Km,[17],528 ± 142 M⁻¹ s⁻¹
"NC[C@H]1O[C@H](O[C@H]2[C@H](O)[C@@H](O)[C@H](N)C[C@@H]2N)[C@H](N)[C@@H](O)[C@@H]1O [NEA, neamine]",positions sequentially acetylated by Eis_Msm,[8],"2′-, 6′-, and 1-position"
same,positions sequentially acetylated by Eis_Mtb,[10],"2′-, 6′-, and 1-position"
same,number of acetylations of NEA by Eis_Ava observed by TLC and NMR,[18],di-acetylation
same,first position acetylated by Eis_Ava,[18]; TLC and NMR,2′-position
same,second site modified by Eis_Ava,[18]; TLC and NMR,1-position
"CN[C@@H]1[C@H](O)[C@H](NC)[C@H]2O[C@@]3(O)C(=O)C[C@@H](C)O[C@H]3O[C@@H]2[C@H]1O [SPT, spectinomycin]",number of acetylations by Eis_Ava,[4],not be substrates
CC(=O)SCCNC(=O)CCNC(=O)[C@H](O)C(C)(C)COP(=O)(O)OP(=O)(O)OC[C@H]1O[C@@H](n2cnc3c(N)ncnc32)[C@H](O)[C@@H]1OP(=O)(O)O [AcCoA],acceptance as cosubstrate by Eis_Mtb,[1],efficiently accepting
same,acceptance as cosubstrate by Eis_Ava,[2],accepted
"CN[C@@H]1[C@@H](O[C@H]2O[C@H](CO)[C@@H](N)[C@H](O)[C@H]2O)OC2C[C@@H](N)[C@@H](O[C@H]3[C@H](O)[C@@H](O)[C@H](N)C[C@@H]3N)OC2[C@@H]1O (stereo partly shown) [APR, apramycin]",number of acetylations by Eis_Msm,[8],Di-acetylation
same,number of acetylations by Eis_Ava,[4],mono-acetylated
same,substrate of Eis_Mtb,[10],not be a substrate
Eis_Ava (Trichormus variabilis ATCC 29413),Km,[19],101 ± 16 µM
same,kcat,[19],0.106 ± 0.006 s⁻¹
same,kcat/Km,[19],1050 ± 184 M⁻¹ s⁻¹
same,Km,[20],337 ± 98 µM
same,kcat,[20],0.019 ± 0.002 s⁻¹
same,kcat/Km,[20],57 ± 18 M⁻¹ s⁻¹
same,Km,[21],237 ± 36 µM
same,kcat,[21],0.183 ± 0.013 s⁻¹
same,kcat/Km,[21],773 ± 132 M⁻¹ s⁻¹
same,Km,[22],42 ± 9 µM
same,kcat,[22],0.352 ± 0.021 s⁻¹
same,kcat/Km,[22],7410 ± 1940 M⁻¹ s⁻¹
